Data: US20150105252A1, “SUBSTITUTED PYRAZOLES AS HERBICIDES” (E I DU PONT DE NEMOURS AND COMPANY, priority 2013, published 2015)

Columns and labels:
Assay in all cases: Test C postemergence
[1] = test system: blackgrass; type: in vivo, Alopecurus myosuroides
Procedure, shortened: (§1)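 Herbicidal effect is expressed as percent visual control (0–100) judged against untreated plants 13 to 15 days after treatment in the greenhouse. Preemergence pots contained seeds in a soil–sand blend; postemergence plants, 2–18 cm tall, grew in peat-based planting medium.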

[2] = test system: ryegrass, Italian; type: in vivo, Lolium multiflorum
Procedure, shortened: as §1

[3] = test system: wheat; type: in vivo, Triticum aestivum
Procedure, shortened: as §1

[4] = test system: galium; type: in vivo, Galium aparine
Procedure, shortened: as §1

[5] = test system: corn; type: in vivo, Zea mays
Procedure, shortened: as §1

[6] = test system: crabgrass, large; type: in vivo, Digitaria sanguinalis
Procedure, shortened: as §1

[7] = test system: foxtail, giant; type: in vivo, Setaria faberii
Procedure, shortened: as §1

[8] = test system: johnsongrass; type: in vivo, Sorghum halepense
Procedure, shortened: as §1

[9] = test system: lambsquarters; type: in vivo, Chenopodium album
Procedure, shortened: as §1

[10] = test system: pigweed; type: in vivo, Amaranthus retroflexus
Procedure, shortened: as §1

[11] = test system: ragweed; type: in vivo, Ambrosia elation
Procedure, shortened: as §1

[12] = test system: soybean; type: in vivo, Glycine max
Procedure, shortened: as §1

[13] = test system: barnyardgrass; type: in vivo, Echinochloa crus-galli
Procedure, shortened: as §1

[14] = test system: oat, wild; type: in vivo, Avena fatua
Procedure, shortened: as §1

[15] = test system: kochia; type: in vivo, Kochia scoparia
Procedure, shortened: as §1

[16] = test system: velvetleaf; type: in vivo, Abutilon theophrasti
Procedure, shortened: as §1

[17] = test system: chickweed; type: in vivo, Stellaria media
Procedure, shortened: as §1

[18] = Postemergence, 31 g ai/ha, visually evaluated after 13 to 15 days
[19] = postemergence, 62 g ai/ha, scale 0 to 100
[20] = postemergence, 250 g ai/ha, scale 0 to 100 (0 no effect, 100 complete control)
[21] = postemergence, 125 g ai/ha, scale 0 to 100, 0 no effect, 100 complete control

CCOc1cc(C(=O)NCC(F)(F)F)nn1Cc1ccnc(C(F)(F)F)c1 [Compound 104]
Plant response rating (scale of 0 to 100 where 0 is no effect and 100 is complete control), Blackgrass [1, 18]: 10
Blackgrass plant response rating [1, 19]: 10
Plant response rating, Blackgrass [1, 20]: 80
Plant response rating, Blackgrass [1, 21]: 40
Plant response rating (scale of 0 to 100 where 0 is no effect and 100 is complete control), Ryegrass, Italian [2, 18]: 5
Ryegrass, Italian plant response rating [2, 19]: 5
Plant response rating, Ryegrass, Italian [2, 20]: 80
Plant response rating, Ryegrass, Italian [2, 21]: 35
Plant response rating (scale of 0 to 100 where 0 is no effect and 100 is complete control), Wheat [3, 18]: 5
Wheat plant response rating [3, 19]: 10
Plant response rating, Wheat [3, 20]: 25
Plant response rating, Wheat [3, 21]: 10
Plant response rating (scale of 0 to 100 where 0 is no effect and 100 is complete control), Galium [4, 18]: 60
Galium plant response rating [4, 19]: 60
Plant response rating, Galium [4, 20]: 85
Plant response rating, Galium [4, 21]: 85
Plant response rating (scale of 0 to 100 where 0 is no effect and 100 is complete control), Corn [5, 18]: 5
Corn plant response rating [5, 19]: 35
Plant response rating, Corn [5, 20]: 95
Plant response rating, Corn [5, 21]: 35
Plant response rating (scale of 0 to 100 where 0 is no effect and 100 is complete control), Crabgrass, Large [6, 18]: 5
Crabgrass, Large plant response rating [6, 19]: 70
Plant response rating, Crabgrass, Large [6, 20]: 95
Plant response rating, Crabgrass, Large [6, 21]: 75
Plant response rating (scale of 0 to 100 where 0 is no effect and 100 is complete control), Foxtail, Giant [7, 18]: 5
Foxtail, Giant plant response rating [7, 19]: 85
Plant response rating, Foxtail, Giant [7, 20]: 98
Plant response rating, Foxtail, Giant [7, 21]: 90
Plant response rating (scale of 0 to 100 where 0 is no effect and 100 is complete control), Johnsongrass [8, 18]: 5
Johnsongrass plant response rating [8, 19]: 15
Plant response rating, Johnsongrass [8, 20]: 85
Plant response rating, Johnsongrass [8, 21]: 40
Plant response rating (scale of 0 to 100 where 0 is no effect and 100 is complete control), Lambsquarters [9, 18]: 80
Lambsquarters plant response rating [9, 19]: 95
Plant response rating, Lambsquarters [9, 20]: 95
Plant response rating, Lambsquarters [9, 21]: 95
Plant response rating (scale of 0 to 100 where 0 is no effect and 100 is complete control), Pigweed [10, 18]: 50
Pigweed plant response rating [10, 19]: 85
Plant response rating, Pigweed [10, 20]: 98
Plant response rating, Pigweed [10, 21]: 95
Plant response rating (scale of 0 to 100 where 0 is no effect and 100 is complete control), Ragweed [11, 18]: 85
Ragweed plant response rating [11, 19]: 85
Plant response rating, Ragweed [11, 20]: 95
Plant response rating, Ragweed [11, 21]: 95
Plant response rating (scale of 0 to 100 where 0 is no effect and 100 is complete control), Soybean [12, 18]: 90
Soybean plant response rating [12, 19]: 95
Plant response rating, Soybean [12, 20]: 95
Plant response rating, Soybean [12, 21]: 95
Plant response rating (scale of 0 to 100 where 0 is no effect and 100 is complete control), Barnyardgrass [13, 18]: 5
Barnyardgrass plant response rating [13, 19]: 5
Plant response rating, Barnyardgrass [13, 20]: 90
Plant response rating, Barnyardgrass [13, 21]: 45
Plant response rating (scale of 0 to 100 where 0 is no effect and 100 is complete control), Oat, Wild [14, 18]: 5
Oat, Wild plant response rating [14, 19]: 15
Plant response rating, Oat, Wild [14, 20]: 85
Plant response rating, Oat, Wild [14, 21]: 35
Plant response rating (scale of 0 to 100 where 0 is no effect and 100 is complete control), Kochia [15, 18]: 85
Kochia plant response rating [15, 19]: 90
Plant response rating, Kochia [15, 20]: 90
Plant response rating, Kochia [15, 21]: 90
Plant response rating (scale of 0 to 100 where 0 is no effect and 100 is complete control), Velvetleaf [16, 18]: 25
Velvetleaf plant response rating [16, 19]: 40
Plant response rating, Velvetleaf [16, 20]: 80
Plant response rating, Velvetleaf [16, 21]: 65
Plant response rating (scale of 0 to 100 where 0 is no effect and 100 is complete control), Chickweed [17, 18]: 55
Chickweed plant response rating [17, 19]: 70
Plant response rating, Chickweed [17, 20]: 90
Plant response rating, Chickweed [17, 21]: 80
